Experimental data: ChEMBL document CHEMBL4014283, “Structural insights of SmKDAC8 inhibitors: Targeting Schistosoma epigenetics through a combined structure-based 3D QSAR, in vitro and synthesis strategy” (Bioorg Med Chem, 2017)
Activity calls are given as the source filed them. No cut-off for these calls is given here.

How the values were obtained:
[1] = target: Histone deacetylase 1 (Homo sapiens, UniProt Q13547); assay: Inhibition of full length human C-terminal FLAG/His-tagged KDAC1 expressed in baculovirus expression system at 30 uM using substrate A after 60 mins by microfluidic assay relative to control; settings: 1 h, 30 µM
[2] = target: T1, Histone deacetylase 8 (Schistosoma mansoni) (UniProt A5H660); assay: Inhibition of Schistosoma mansoni KDAC8 at 30 uM using (FAM)-labeled peptide as substrate after 60 mins by microfluidic assay
T1 sequence (whole entry): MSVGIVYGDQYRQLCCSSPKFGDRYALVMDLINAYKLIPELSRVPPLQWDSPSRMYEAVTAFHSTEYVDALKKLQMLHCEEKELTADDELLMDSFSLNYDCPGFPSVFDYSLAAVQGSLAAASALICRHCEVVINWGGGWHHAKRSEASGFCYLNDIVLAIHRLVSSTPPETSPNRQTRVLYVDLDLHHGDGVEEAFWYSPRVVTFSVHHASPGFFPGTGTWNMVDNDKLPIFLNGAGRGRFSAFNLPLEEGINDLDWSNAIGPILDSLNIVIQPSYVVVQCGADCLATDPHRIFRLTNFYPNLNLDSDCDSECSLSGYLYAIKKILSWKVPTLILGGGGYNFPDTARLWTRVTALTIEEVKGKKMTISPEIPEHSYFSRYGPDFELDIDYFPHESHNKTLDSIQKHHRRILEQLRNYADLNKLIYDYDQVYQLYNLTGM

[3] = target: T2, Histone deacetylase 8 (Homo sapiens, UniProt Q9BY41); assay: (§1) Inhibition of full length human C-terminal His-tagged KDAC8 expressed in baculovirus expression system at 30 uM using (FAM)-labeled peptide as substrate after 60 mins by microfluidic assay relative to control; settings: 1 h, 30 µM
T2 sequence (Q9BY41 whole entry): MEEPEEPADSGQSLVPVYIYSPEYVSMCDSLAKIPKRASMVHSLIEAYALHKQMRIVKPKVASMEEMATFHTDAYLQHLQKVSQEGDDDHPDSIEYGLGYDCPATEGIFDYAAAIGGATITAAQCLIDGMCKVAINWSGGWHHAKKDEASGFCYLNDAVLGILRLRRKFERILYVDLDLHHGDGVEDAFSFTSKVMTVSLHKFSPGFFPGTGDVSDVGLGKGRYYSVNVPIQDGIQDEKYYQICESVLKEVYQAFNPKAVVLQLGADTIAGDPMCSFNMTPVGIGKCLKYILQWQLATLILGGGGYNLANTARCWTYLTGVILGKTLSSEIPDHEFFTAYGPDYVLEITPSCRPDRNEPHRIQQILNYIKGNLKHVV

[4] = target: T3, Protein deacetylase HDAC6 (Homo sapiens, UniProt Q9UBN7); assay: (§2) Inhibition of human KDAC6 expressed in baculovirus expression system at 30 uM using FITC-Histone 4 acetylated peptide as substrate after 60 mins by microfluidic assay; settings: 1 h, 30 µM
T3 sequence (Q9UBN7 whole entry): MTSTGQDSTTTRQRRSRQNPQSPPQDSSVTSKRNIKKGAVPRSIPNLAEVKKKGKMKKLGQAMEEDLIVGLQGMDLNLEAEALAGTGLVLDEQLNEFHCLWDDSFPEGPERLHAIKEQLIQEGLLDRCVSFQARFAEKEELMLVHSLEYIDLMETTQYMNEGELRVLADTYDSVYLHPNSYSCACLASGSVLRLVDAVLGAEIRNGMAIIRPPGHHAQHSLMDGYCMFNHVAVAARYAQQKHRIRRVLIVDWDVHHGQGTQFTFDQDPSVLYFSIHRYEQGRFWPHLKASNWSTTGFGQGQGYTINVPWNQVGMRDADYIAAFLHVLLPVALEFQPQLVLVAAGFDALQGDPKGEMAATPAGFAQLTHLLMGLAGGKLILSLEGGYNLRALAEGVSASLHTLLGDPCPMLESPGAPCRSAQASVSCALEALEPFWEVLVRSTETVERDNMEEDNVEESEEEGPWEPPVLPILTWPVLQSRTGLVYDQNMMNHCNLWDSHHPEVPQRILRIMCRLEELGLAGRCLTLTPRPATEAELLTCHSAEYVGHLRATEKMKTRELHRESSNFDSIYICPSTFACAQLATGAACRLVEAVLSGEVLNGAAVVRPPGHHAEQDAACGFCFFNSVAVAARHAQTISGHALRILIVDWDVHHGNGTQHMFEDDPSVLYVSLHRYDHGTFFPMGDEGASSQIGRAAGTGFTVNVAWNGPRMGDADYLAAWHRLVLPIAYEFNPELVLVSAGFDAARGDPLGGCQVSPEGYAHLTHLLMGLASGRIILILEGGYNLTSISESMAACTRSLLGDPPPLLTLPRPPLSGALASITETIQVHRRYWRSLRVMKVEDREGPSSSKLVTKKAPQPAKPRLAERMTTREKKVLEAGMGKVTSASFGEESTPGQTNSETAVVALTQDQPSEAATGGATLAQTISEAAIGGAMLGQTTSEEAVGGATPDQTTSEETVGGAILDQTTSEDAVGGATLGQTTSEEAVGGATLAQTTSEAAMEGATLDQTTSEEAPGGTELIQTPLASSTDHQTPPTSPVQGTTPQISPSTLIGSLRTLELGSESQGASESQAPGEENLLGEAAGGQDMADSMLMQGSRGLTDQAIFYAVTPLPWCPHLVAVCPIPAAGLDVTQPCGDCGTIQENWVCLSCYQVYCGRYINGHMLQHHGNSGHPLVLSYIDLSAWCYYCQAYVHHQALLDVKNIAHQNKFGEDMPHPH

[5] = target: KDAC3/NCOR2 (histone deacetylase 3/nuclear receptor corepressor 2 complex) (Homo sapiens, UniProt O15379); assay: (§3) Inhibition of full length human C-terminal His-tagged KDAC3/N-terminal GST-tagged human NCOR2 (395 to 489 residues) expressed in baculovirus expression system at 30 uM using FITC-p53 acetylated peptide as substrate after 60 mins by microfluidic assay; settings: probe FITC-p53 acetylated peptide
[6] = target: Histone deacetylase 3/Nuclear receptor corepressor 2 (HDAC3/NCoR2) (Homo sapiens, UniProt O15379+Q9Y618); assay: as §3; settings: 1 h, 30 µM
[7] = target: T4, KDAC8 (histone deacetylase 8) (Homo sapiens, UniProt Q9BY41); assay: as §1; settings: probe (FAM)-labeled peptide
T4 sequence (Q9BY41 whole entry): T2 sequence (Q9BY41 whole entry)

[8] = target: T5, KDAC6 (protein deacetylase HDAC6) (Homo sapiens, UniProt Q9UBN7); assay: as §2; settings: probe FITC-Histone 4 acetylated peptide
T5 sequence (Q9UBN7 whole entry): T3 sequence (Q9UBN7 whole entry)

Chain of Histone deacetylase 3/Nuclear receptor corepressor 2 (HDAC3/NCoR2) (O15379 whole entry): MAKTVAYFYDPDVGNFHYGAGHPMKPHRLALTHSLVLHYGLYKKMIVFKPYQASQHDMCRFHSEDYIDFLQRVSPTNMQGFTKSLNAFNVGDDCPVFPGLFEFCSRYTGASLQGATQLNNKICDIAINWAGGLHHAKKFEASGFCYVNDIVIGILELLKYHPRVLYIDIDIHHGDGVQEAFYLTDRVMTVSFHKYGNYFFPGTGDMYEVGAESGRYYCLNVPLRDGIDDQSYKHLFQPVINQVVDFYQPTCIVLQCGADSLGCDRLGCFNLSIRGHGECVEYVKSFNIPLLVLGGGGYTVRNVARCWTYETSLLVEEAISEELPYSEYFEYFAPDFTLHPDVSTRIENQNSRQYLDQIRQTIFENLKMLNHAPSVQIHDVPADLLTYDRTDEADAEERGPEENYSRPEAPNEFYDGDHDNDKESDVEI
Chain of Histone deacetylase 3/Nuclear receptor corepressor 2 (HDAC3/NCoR2) (Q9Y618 whole entry): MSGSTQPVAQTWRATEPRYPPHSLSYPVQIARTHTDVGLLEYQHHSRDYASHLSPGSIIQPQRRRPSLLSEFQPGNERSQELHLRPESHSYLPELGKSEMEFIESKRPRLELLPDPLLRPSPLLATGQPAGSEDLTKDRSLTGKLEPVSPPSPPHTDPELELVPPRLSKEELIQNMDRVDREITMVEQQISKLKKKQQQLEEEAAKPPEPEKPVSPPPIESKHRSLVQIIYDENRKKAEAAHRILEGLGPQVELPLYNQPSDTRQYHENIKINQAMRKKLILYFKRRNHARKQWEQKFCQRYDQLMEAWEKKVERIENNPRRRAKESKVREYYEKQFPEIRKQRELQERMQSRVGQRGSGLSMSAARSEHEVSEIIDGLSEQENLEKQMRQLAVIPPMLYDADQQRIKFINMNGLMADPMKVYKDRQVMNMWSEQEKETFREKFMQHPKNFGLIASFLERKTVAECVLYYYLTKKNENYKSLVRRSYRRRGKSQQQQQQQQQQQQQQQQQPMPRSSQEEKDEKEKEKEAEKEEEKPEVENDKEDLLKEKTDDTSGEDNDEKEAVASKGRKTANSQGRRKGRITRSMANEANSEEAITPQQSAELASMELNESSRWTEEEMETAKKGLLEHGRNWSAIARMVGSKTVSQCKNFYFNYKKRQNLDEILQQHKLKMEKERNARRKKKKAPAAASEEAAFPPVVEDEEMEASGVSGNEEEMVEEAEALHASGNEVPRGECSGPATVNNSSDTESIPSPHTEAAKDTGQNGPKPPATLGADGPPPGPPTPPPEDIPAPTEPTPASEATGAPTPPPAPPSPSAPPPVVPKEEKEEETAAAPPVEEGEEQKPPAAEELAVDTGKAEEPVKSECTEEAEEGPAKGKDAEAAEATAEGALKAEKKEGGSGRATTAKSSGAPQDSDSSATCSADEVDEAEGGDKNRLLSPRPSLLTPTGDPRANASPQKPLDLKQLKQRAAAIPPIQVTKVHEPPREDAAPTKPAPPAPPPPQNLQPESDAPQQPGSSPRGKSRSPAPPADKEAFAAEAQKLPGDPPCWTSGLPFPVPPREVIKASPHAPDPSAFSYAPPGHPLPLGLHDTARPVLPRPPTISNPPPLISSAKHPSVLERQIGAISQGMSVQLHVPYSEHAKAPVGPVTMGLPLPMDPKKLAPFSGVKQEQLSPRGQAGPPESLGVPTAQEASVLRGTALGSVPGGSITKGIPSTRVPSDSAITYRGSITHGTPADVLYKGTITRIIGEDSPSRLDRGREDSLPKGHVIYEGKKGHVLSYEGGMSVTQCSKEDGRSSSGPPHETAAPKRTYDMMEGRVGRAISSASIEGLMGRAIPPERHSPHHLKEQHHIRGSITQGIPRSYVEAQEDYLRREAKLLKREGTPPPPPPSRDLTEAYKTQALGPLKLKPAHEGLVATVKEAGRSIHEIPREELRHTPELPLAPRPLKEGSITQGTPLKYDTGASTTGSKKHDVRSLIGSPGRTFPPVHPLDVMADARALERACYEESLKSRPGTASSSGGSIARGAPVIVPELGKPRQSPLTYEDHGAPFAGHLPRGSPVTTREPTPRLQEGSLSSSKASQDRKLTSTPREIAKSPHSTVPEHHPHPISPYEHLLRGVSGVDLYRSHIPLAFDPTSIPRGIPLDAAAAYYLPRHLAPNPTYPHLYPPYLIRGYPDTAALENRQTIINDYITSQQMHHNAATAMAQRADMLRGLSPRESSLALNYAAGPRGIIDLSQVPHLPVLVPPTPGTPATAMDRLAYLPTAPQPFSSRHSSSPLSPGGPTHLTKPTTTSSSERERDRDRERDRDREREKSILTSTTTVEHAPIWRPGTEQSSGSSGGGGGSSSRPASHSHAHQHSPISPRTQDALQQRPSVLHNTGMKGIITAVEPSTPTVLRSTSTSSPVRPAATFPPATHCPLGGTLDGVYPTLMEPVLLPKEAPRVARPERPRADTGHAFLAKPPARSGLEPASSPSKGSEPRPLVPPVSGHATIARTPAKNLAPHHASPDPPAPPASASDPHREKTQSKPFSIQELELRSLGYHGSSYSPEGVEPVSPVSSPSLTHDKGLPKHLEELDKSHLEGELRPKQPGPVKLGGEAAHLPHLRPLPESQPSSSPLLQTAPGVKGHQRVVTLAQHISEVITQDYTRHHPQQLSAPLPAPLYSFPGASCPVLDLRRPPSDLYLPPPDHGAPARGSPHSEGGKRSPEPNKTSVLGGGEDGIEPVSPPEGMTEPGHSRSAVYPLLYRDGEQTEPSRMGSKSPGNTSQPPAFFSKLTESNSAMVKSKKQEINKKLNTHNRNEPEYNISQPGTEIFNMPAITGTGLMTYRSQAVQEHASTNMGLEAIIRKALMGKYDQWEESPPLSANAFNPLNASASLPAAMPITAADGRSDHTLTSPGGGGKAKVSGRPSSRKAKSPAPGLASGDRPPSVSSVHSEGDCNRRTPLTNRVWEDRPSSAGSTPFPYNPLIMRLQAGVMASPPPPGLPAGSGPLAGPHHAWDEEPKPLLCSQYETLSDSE
Chain of KDAC3/NCOR2 (histone deacetylase 3/nuclear receptor corepressor 2 complex) (O15379 whole entry, the tested form may be a part): as the sequence (O15379 whole entry) above
Chain of KDAC3/NCOR2 (histone deacetylase 3/nuclear receptor corepressor 2 complex) (Q9Y618 whole entry, further chain, the tested form may be a part): as the sequence (Q9Y618 whole entry) above
Chain of Histone deacetylase 1 (Q13547 whole entry): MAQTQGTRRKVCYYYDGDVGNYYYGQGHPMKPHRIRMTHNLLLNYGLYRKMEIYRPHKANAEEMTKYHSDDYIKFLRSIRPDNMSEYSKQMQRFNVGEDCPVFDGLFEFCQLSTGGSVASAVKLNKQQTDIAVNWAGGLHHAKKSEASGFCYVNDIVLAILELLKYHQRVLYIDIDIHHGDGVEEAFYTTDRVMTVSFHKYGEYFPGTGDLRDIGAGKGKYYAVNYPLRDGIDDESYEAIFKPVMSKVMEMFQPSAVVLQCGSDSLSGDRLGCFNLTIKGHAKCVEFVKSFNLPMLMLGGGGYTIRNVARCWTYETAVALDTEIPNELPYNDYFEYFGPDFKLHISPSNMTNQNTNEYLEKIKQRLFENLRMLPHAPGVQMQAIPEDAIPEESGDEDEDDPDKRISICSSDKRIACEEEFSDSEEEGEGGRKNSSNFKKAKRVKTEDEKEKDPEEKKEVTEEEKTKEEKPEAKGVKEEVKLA

| inhibition (INH) [1] | inhibition [2] | inhibition (INH) [3] | inhibition (INH) [4] | inhibition at 1 h, 30 µM [5] | inhibition (INH) [6] | inhibition at 1 h, 30 µM [7] | inhibition at 1 h, 30 µM [8] | Structure (SMILES) |
| --- | --- | --- | --- | --- | --- | --- | --- | --- |
| Not Active | 2% | Not Active | Not Active | 6% |  |  |  | NC(=O)c1ccccc1OCC(=O)Nc1ccc(Cl)c(Cl)c1 |
| Not Active | 3% | Not Active | Not Active | 3% |  |  |  | COC(=O)C(=Cc1ccccc1[N+](=O)[O-])C(=O)OC |
| Not Active | 8% | Not Active | Not Active | 2% |  |  |  | Cc1ccc(Nc2nnc(S)s2)cc1F |
| Not Active | inactive | Not Active | Not Active |  | Not Active |  |  | CC(C)NCC1CCc2cc(CO)c([N+](=O)[O-])cc2N1 (stereo not given) [OXAMNIQUINE] |
| Not Active | 12% | Not Active | Not Active |  | Not Active |  |  | CC(=O)OCCn1c([N+](=O)[O-])cnc1/C=[N+](\[O-])C1CCCCC1 |
| Not Active | 2% | Not Active | Not Active | 3% |  |  |  | C=CCN=C(S)Nc1cccc([N+](=O)[O-])c1 |
| Not Active | inactive |  | Not Active |  | Not Active | 4% |  | S=C(SCc1cc(Cl)cc2c1OCOC2)N1CCSCC1 |
| Not Active | inactive | Not Active | Not Active |  | Not Active |  |  | O=C(OCC(O)COC(=O)c1cccnc1)c1cccnc1 |
| Not Active | 1% | Not Active | Not Active |  | Not Active |  |  | Cc1cc(-n2cnc3c(O)ncnc32)ccc1N |
| Not Active | inactive | Not Active | Not Active | 7% |  |  |  | CCOC(=O)C1=C(N)N=C(N)C1=Nc1ccc(OC)cc1 |
| Not Active | inactive | Not Active |  | 8% |  |  | 3% | CSC1=NC=C(C#N)C2=NC(c3ccc(Cl)cc3)NN12 (stereo not given) |
| Not Active | 6% | Not Active | Not Active |  | Not Active |  |  | O=C(O)c1ccccc1C(=O)Nc1ccccc1[N+](=O)[O-] |
| Not Active | 2% |  | Not Active |  | Not Active | 4% |  | Cc1cc(C)n(C(=N)NC(=O)c2ccc([N+](=O)[O-])cc2)n1 |
| Not Active | 12% | Not Active | Not Active | 1% |  |  |  | NS(=O)(=O)c1ccc(Nc2ccccc2)c([N+](=O)[O-])c1 |
| Not Active | inactive | Not Active |  | 9% |  |  | 21% | CCOC(=O)CSc1nc2nc(Cl)c(Cl)[nH]c-2n1 |
| Not Active | inactive | Not Active | Not Active |  | Not Active |  |  | Cc1cc(NC(=O)Nc2cc(F)ccc2F)no1 |
| Not Active | 10% | Not Active | Not Active |  | Not Active |  |  | Clc1ccc(Nc2nnc(-c3ccc4c(c3)OCO4)o2)cc1 |
| Not Active | 16% |  | Not Active | 7% |  | 7% |  | O=C(NCc1ccco1)Nc1cccc([N+](=O)[O-])c1 |
| Not Active | inactive |  | Not Active | 2% |  | 15% |  | CCOC(=O)c1cc2c(OC)c(OC)ccc2c2ncc(C#N)c(O)c12 |
| Not Active | 5% |  | Not Active |  | Not Active | 6% |  | CCOC(=O)Nc1ccc2nc(N3CCCCCC3)sc2c1 |
| Not Active | inactive |  | Not Active | 3% |  | 7% |  | Cc1c(COC(=O)N(C)C)c(COC(=O)NC(C)C)c2n1CS(=O)(=O)C2 |
| Not Active | 2% | Not Active | Not Active |  | Not Active |  |  | CCOP(=O)(OCC)/C(C#N)=C/c1ccc([N+](=O)[O-])cc1 |
| Not Active | inactive |  | Not Active | 1% |  | 5% |  | O=C1c2ccccc2C2=C3C(O)=NN=C3CCN12 |
| Not Active | inactive | Not Active |  | 24% |  |  | 20% | CSc1nc(O)nnc1Sc1ccccc1 |
| Not Active | inactive | Not Active | Not Active |  | Not Active |  |  | Nc1ccccc1Sc1cc(Cl)nnc1Cl |
| Not Active | inactive | Not Active |  | 10% |  |  | 18% | O=C1CSC(=S)N1/N=C/c1c[nH]c2ccc(Br)cc12 |
